We go through one compound from US20130115622A1, “PHARMACEUTICAL COMPOSITION FOR PREVENTION AND TREATMENT OF AMYOTROPHIC LATERAL SCLEROSIS” (KYOTO UNIVERSITY, priority 2009, published 2013).

Structures can show the parent of a compound that is named as a salt.

This test deals with SOD1. Nature of the test: Analysis of SOD1 in iPS cell-derived astrocytes (Western blotting). The settings on record: astrocytes differentiated from ALS patient iPS cells (SOD1 L106V); 5 nM, 50 nM, 500 nM and 5 μM; 48 hours incubation; Western blotting vs vehicle 0.5% DMSO. It counts as cell-based, human. On the procedure: The iPS cell-derived astrocytes were seeded to a 6-well plate at a density of 250,000 cells/well. After a vehicle [0.5% dimethylsulfoxide (DMSO)], cycloheximide at a final concentration of 5 μg/ml, and Atorvastatin Calcium Salt (Toronto Research Chemicals Inc.) at various final concentrations (5 nM, 50 nM, 500 nM and 5 μM) were added, the plate was incubated for 48 hours. Subsequently, the cells were recovered, and lysed using a 20 mM Hepes, pH 7.4, containing 1% triton X-100, 10% glycerol, 5 mM EDTA, 120 mM NaCl and protease inhibitor cocktail (Complete; Roche), on ice for 30 minutes. The cell lysate was centrifuged at 15,000 rpm, 4° C. for 30 minutes, and the supernatant was recovered. Western blotting was performed using this cytolysis supernatant. Specifically, 20 μg aliquot of the protein was separated by SDS-PAGE (4-12% polyacrylamide gels), transferred to a PVDF membrane, and incubated with an anti-SOD1 antibody (1:2000 dilution) (Stressgen Company) or an anti-β-actin antibody (1:5000 dilution) (Sigma-Aldrich Company). After the incubation, the amount expressed was detected by ECL (Enhanced ChemiLuminescence) using an HRP-linked anti-rabbit IgG antibody (1:5000; GE healthcare) and an HRP-linked anti-mouse IgG antibody (1:5000; GE healthcare). […] Meanwhile, when the vehicle DMSO alone was added to the human iPS cell 253G4 described by Nakagawa M et al. in Nat. Biotechnol. […]
(In general: A western blot detects proteins with antibodies after separation by electrophoresis.)

On to `CC(C)c1c(C(=O)Nc2ccccc2)c(-c2ccccc2)c(-c2ccc(F)cc2)n1CC[C@H](O)C[C@@H](O)CC(=O)O` [Atorvastatin Calcium Salt, (3R,5S)-7-[2-(4-fluorophenyl)-5-(1-methylethyl)-3-phenyl-4-phenylaminocarbonyl-1H-pyrrol-1-yl]-3,5-dihydroxyheptanoic acid], for which the “expression of SOD1 (amount of SOD1 protein)” value was “a reduction in the expression of SOD1 was observed”.
